Experimental data as given in US20060045892A1, “Cosmetic compositions” (priority 2004, published 2006).

Legend:
[1] = test system: skin redness, skin inflammation, irritation and skin aging; assay: Materials tested for usefulness in the present invention (improving skin appearance, reducing skin redness, inflammation, irritation); type: in vivo, humans; conditions: topical; related materials tested
[2] = test system: skin; assay: Skin irritation by the applied material; type: in vivo, humans; conditions: topical

SMILES	usefulness (activity) in the present invention [1]	irritation (reddening) of the skin to which it is applied [2]
OCC1(CO)CC2C=CC1C2 (stereo not drawn) [5-norborene-2,2-dimethanol]	do not work	
CC1(C)[C@H]2C[C@H]1[C@@](C)(O)[C@@H](O)C2 [(1R,2R,3S,5S-(−))-pinanediol]	do not work	
CC(=O)OC1CCCCC1 [cyclohexyl acetate]	not to be useful	
C1=CCCCC1 [cyclohexene]	not to be useful	
CC1(O)CCCCC1 [1-methylcyclohexanol]	not to be useful	
OCCCCC1CCCCC1 [4-cyclohexyl-1-butanol]	not to be useful	
OC1CCCC1O (stereo not drawn) [1,2-cyclopentanediol]	do not work	
CC1CCC(C(C)C)C(O)C1 (stereo not drawn) [menthol]	not to be useful	can irritate
ClC1CCCCC1 [cyclohexyl chloride]	not to be useful	
O=C(O)C1CCCCC1 [cyclohexyl carboxylic acid]	not to be useful	
C1CCCCC1 [cyclohexane]	not to be useful	
